# Experimental data as given in patent publication US12617794B2, “GABAA positive allosteric modulator compounds, methods of making, and uses thereof” (NEUROCYCLE THERAPEUTICS, INC., priority 2019, dated 2026).
# Where two headings read alike, the source gives them in different places.
# Experiments:
# [1] = Solubility in aqueous buffers, SGF, FaSSIF and FeSSIF (Example 15); type: physicochemical; conditions: for solubility thermodynamic: 20 °C, thermodynamic from solid, read-out: Measured Conc.; for solubility thermodynamic / Measured Conc. (μg/mL): ~20-25° C., ~24 hours
# Method: About 2 mg of test article was added to a 1.5 mL vials which contained ˜1.0 mL of one medium listed in Table 7 and Table 8, which was then sealed. The mixtures were stirred at ˜20-25° C. for ˜24 hours. After that, the mixture was filtered by 0.45 μm filter membrane and then the supernatant was analyzed by HPLC.
# [2] = Intrinsic dissolution rate in SGF (Example 16); type: physicochemical; conditions: 37° C., 100 rpm, linear scope within 2 to 120 min
# Method: About 100 mg of Free Base Polymorphic Form A or Phosphate Polymorphic Form A was weighed into the intrinsic dissolution apparatus and the sample compressed for 1 minute with a compression force of ˜4 MPa to form a compacted pellet within the stainless-steel die. All loose powder was removed from the surface of the die. The intrinsic dissolution shaft was connected with the stainless-steel die and tightened so only one surface of the pellet was exposed (surface area=0.496 cm^2). The shaft in the spindle was adjusted to ensure the exposed surface of the compacted tablet was ˜3.8 cm from the bottom of the vessel when lowered. The temperature of chamber water was set at 37° C.±0.5° C., the shaft rotation at 100 rpm and the sampling time points at 2, 5, 10, 15, 30, 45, 60, 120 min. SGF was used as dissolution medium (900 mL). At each time point, solution samples were filtered, and the supernatant was analyzed by HPLC-UV.
# [3] = Pharmacokinetics in rats (Example 17); type: in vivo, Sprague-dawley rats; conditions: rat, PO 2 mg/kg, mean
# Method: To evaluate the pharmacokinetics (PK) of Phosphate Polymorphic Form A, suspensions or solutions were dosed by either oral gavage (0.5% methyl cellulose) or IV (60% PEG400/40% saline) in normal, healthy, male Sprague-dawley rats with serial blood collection focused on the first 48 hours of exposure. Rats were dosed with vehicle or test compounds at 1 mg/kg (IV) or 2 mg/kg (PO). Approximately 0.2 mL blood was collected at each time point. All blood samples were collected jugular vein puncture. All blood samples were transferred into plastic microcentrifuge tubes containing 5 μL of EDTA-K2 as anti-coagulant or pre-chilled commercial EDTA-K2 tubes and placed on wet ice until centrifugation. Harvested blood samples were centrifuged within 30 min of collection at 7,000 rpm for 10 minutes. The extracts were analyzed for compound concentration by LC/MS/MS. Data were analyzed with Phoenix WinNonlin 6.3 using the IV-Noncompartmental model 201 (IV bolus input) and PO-Noncompartmental model 200 (extravascular input) methods.
# [4] = Approximate solubility study of TPA023B phosphate (Example 25); type: physicochemical; conditions: RT, listed as TPA023B phosphate
# Method: The total amount of solvent was recorded to calculate the approximate solubility in these solvents.
# Competitive slurry study = type: physicochemical
# Excerpt: Determining which polymorphic form is more thermodynamically stable may be experimentally determined by conventional methods known in the art. For example, a competitive slurry experiment in which a 1:1 mixture of polymorphic forms is stirred for a period of time in a solvent in which both polymorphic forms are partly soluble may be conducted. It is accepted by those skilled in the art that if the 1:1 mixture converts entirely to one polymorphic form, that form that results is more thermodynamically stable of the two, while the other form is metastable.
# TPA023B Phosphate of mixed forms was added into specific solvents and stirred at RT or 50° C. for 1 day. The suspensions were filtered and characterized by XRPD.
# [5] = Mechanical treatment (grinding) of Phosphate Form A; type: physicochemical; conditions: for crystal form after grinding (XRPD): ground manually with mortar and pestle, 3-5 minutes
# Excerpt: The crystal form was unchanged after grinding.
# [6] = Solid-state stability of Phosphate Form A at 40° C./75% RH and 25° C./95% RH (Example 36); type: physicochemical; conditions: up to two weeks
# [7] = Slurry of Phosphate Form A in acetone with different water content (Example 68); type: physicochemical; conditions: for Result (solid form after slurry): slurry in acetone at RT
# Excerpt: The suspension was stirred at RT for hours. The solid was isolated and analyzed. […] Phosphate dissociated when water content is >, 4% wt. in acetone at RT.
# [8] = Liquid vapor diffusion (Example 61); type: physicochemical; conditions: RT, 6 days
# Excerpt: After filtration, the filtrate in a small vial was put into a bigger vial containing anti-solvent. The bigger vial was left at RT for days. If precipitation occurred, solid was collected and characterized.
# After filtration, the filtrate was transferred into a small vial, which was then placed inside a bigger vial which contained anti-solvent. The bigger vial was left at RT for 6 days. If precipitation occurred, solid was collected and characterized. No new phosphate form was obtained.
structure (smiles),measurement,setting,value
"CC(C)(O)c1cnn2c(-c3ccc(F)c(-c4c(F)cccc4C#N)c3)cnc2n1 [Phosphate Polymorphic Form A, 2′,6-difluoro-5′-[3-(1-hydroxy-1-methylethyl)-imidazo[1,2-b][1,2,4]triazin-7-yl]biphenyl-2-carbonitrile]",solubility thermodynamic,"[1]; FaSSIF, fassif, FaSSIF",7.14 µg/mL
same,solubility thermodynamic,"[1]; FeSSIF, fessif, FeSSIF",50.7 µg/mL
same,solubility thermodynamic,"[1]; SGF, simulated gastric fluid, SGF",3.85 µg/mL
same,solubility thermodynamic,"[1]; citrate buffer, pH 3, aqueous buffer, pH 3.0 citrate buffer (100 mM), LOQ: 0.1 μg/mL",0.16 µg/mL
same,solubility compared with Free Base Polymorphic Form A,"[1]; in SGF, FaSSIF and FeSSIF",higher solubility
same,Measured Conc. (μg/mL),"[1]; pH 4.5 citrate buffer (100 mM), LOQ: 0.1 μg/mL",<LOQ
same,Measured Conc. (μg/mL),"[1]; pH 7.4 PBS (50 mM), LOQ: 0.1 μg/mL",<LOQ
same,Measured Conc. (μg/mL),"[1]; pH 9.0 USP Buffer (50 mM), LOQ: 0.1 μg/mL",<LOQ
same,intrinsic dissolution rate,[2],0.184 mg·cm^−2min^−1
same,AUCExtra (%),[3],6.25%
same,Solubility (mg/mL),[4]; DMF,relatively high solubility
same,Solubility (mg/mL),[4]; DMSO,relatively high solubility
same,thermodynamic stability among phosphate forms,Competitive slurry study,most thermodynamically stable form
same,crystallinity after grinding,[5],decreased
same,crystal form after grinding (XRPD),[5]; listed as Phosphate Form A,unchanged
same,crystal form after grinding (XRPD),[5]; listed as TPA023B Phosphate Form A,remained unchanged
same,crystal form after grinding (XRPD),[5]; listed as phosphate Form A,no change
same,crystal form after storage,[6]; 25° C./95% RH,remained unchanged
same,crystal form after storage,[6]; 40° C./75% RH,remained unchanged
same,Result (solid form after slurry),[7]; water content 3 wt. %,Phosphate Form A
same,Result (solid form after slurry),[7]; water content 3.5 wt. %,Phosphate Form A
same,Result (solid form after slurry),[7]; water content 4 wt. %,Phosphate Form A + Free Base Form E
same,Result (solid form after slurry),[7]; water content 4.5 wt. %,Phosphate Form A + Free Base Form E
same,Result (solid form after slurry),[7]; water content 5 wt. %,Phosphate Form A + Free Base Form E
same,Result (solid form after slurry),[7]; water content 5.5 wt. %,Phosphate Form A + Free Base Form E
same,Result (solid form after slurry),[7]; water content 6 wt. %,Phosphate Form A + Free Base Form E
same,solid form after slurry in acetone,"[7]; water content <3.5% wt., RT",remained unchanged
same,solid form after slurry in acetone,"[7]; water content >, 4% wt. in acetone at RT",dissociated
same,Result (solid form obtained),"[8]; solvent 2-methyl tetrahydrofuran, anti-solvent Chloroform",Phosphate Form A
same,Result (solid form obtained),"[8]; solvent 2-methyl tetrahydrofuran, anti-solvent Methyl cyclohexane",Phosphate Form A
same,Result (solid form obtained),"[8]; solvent 2-methyl tetrahydrofuran, anti-solvent xylene",Phosphate Form A
same,Result (solid form obtained),"[8]; solvent DMAC, anti-solvent DCM",No solid
same,Result (solid form obtained),"[8]; solvent DMAC, anti-solvent EA",No solid
same,Result (solid form obtained),"[8]; solvent DMAC, anti-solvent Isopropyl ether",No solid
same,Result (solid form obtained),"[8]; solvent Diox, anti-solvent ACN",No solid
same,Result (solid form obtained),"[8]; solvent Diox, anti-solvent BAC",Phosphate Form A
same,Result (solid form obtained),"[8]; solvent Diox, anti-solvent DCM",Phosphate Form A
same,Result (solid form obtained),"[8]; solvent Diox, anti-solvent Heptane",Phosphate Form A
same,Result (solid form obtained),"[8]; solvent Diox, anti-solvent Isopropyl ether",Phosphate Form A
same,Result (solid form obtained),"[8]; solvent MEK, anti-solvent Cyclohexanone",Phosphate Form A
same,Result (solid form obtained),"[8]; solvent MEK, anti-solvent DCM",Phosphate Form A
same,Result (solid form obtained),"[8]; solvent MEK, anti-solvent MAC",No solid
same,Result (solid form obtained),"[8]; solvent MEK, anti-solvent MTBE",No solid
same,Result (solid form obtained),"[8]; solvent MEK, anti-solvent Trichloromethane",Phosphate Form A
same,Result (solid form obtained),"[8]; solvent NMP, anti-solvent Chloroform",No solid
same,Result (solid form obtained),"[8]; solvent NMP, anti-solvent Isopropyl ether",No solid
same,Result (solid form obtained),"[8]; solvent NMP, anti-solvent MEK",No solid
same,Result (solid form obtained),"[8]; solvent THF, anti-solvent ACN",No solid
same,Result (solid form obtained),"[8]; solvent THF, anti-solvent EA",Phosphate Form A
same,Result (solid form obtained),"[8]; solvent THF, anti-solvent N-pentane",Phosphate Form A
same,Result (solid form obtained),"[8]; solvent THF, anti-solvent Toluene",Phosphate Form A
same,Result (solid form obtained),"[8]; solvent THF, anti-solvent Trichloromethane",No solid
